In assay [1] the test system is benzodiazepine site of GABAA. As to the kind of experiment: Binding assay, benzodiazepine site of GABAA (binding assay 1: rat brain, (3H)-flunitrazepam; binding assay 2: bovine hippocampal membranes, [3H]-RY80). Particulars: 10 μM test compound; radioligand binding. The gist of the method: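 Assay 1: rat whole-brain (minus cerebellum) membranes in Na–K phosphate pH 7.4, 1 nM (3H)-flunitrazepam, 60 min at 25° C., ± 30 μM GABA; nonspecific with 10 μM diazepam. Assay 2: bovine hippocampal membranes, 0.8 nM [3H]-RY80 in 50 mM Tris-Citrate pH 7.8/200 mM NaCl, 60 min at 0-4° C.; nonspecific with 0.5 μM L-655,708. Filtration read-out.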

A further assay relates to GABAA receptors. As to the kind of experiment: Electrophysiology assay, two-electrode voltage clamp in Xenopus oocytes expressing GABAA receptors. Particulars: GABA EC10, screening concentration of 10 μM, subunit combination not stated. Type of assay: cell-based. The method, then:
mRNA was prepared from lyophilized plasmid pellets containing cDNA inserts encoding the specific GABAA receptor subunit. cDNAs encoding the α2, α3, and γ3 subunits were subcloned into pBluescript, SK^−. cDNAs encoding the α1 and α5 subunits were subcloned into prC while cDNA encoding the β2 subunit was subcloned into pcDNA1. The cDNA construct encoding the γ2s subunit is in the pGH19 expression construct. Overnight cultures of transformed DH5a bacterial cells were performed to grow sufficient quantities for maxiprep isolation of the plasmid cDNA. The resulting plasmid cDNA was linearized by digestion with an appropriate restriction enzyme that cleaves distal to the cDNA insert (XbaI for α1,2, β2, and γ3 or NotI for α3,5 and γ2, respectively). Following digestion, plasmid cDNA was treated with proteinase K and extracted with phenol/chloroform/isoamyl alcohol, followed by ethanol precipitation. cDNA quality was assessed by agarose-gel electrophoresis (1.5% agarose gel). Samples were stored at −20° C. until use. In vitro transcription was performed with T7 RNA polymerase. mRNA was then stored at −80° C. until use. Plasmids were linearized with appropriate restriction enzymes before in vitro transcription using the Message Machine kit (Ambion, Austin, Tex.).
GABAA Receptor Expression in Xenopus oocytes.
GABAA receptor expression in Xenopus oocytes: Following 45 min of 0.15% Tricaine anesthesia, an ovarian section containing the follicular oocytes was removed from the frog through a lateral abdominal incision. Oocytes were immediately placed in a calcium-free solution (NaCl 96 mM, MgCl2 1 mM, KCl 2 mM, Hepes 50 mM, pyruvate 2.5 mM, gentamycin 100 μg/mL, penicillin-streptomycin 50 U/mL, pH 7.4). Following 1.5-2 hour incubation in 0.2% collagenase (type II, Sigma Chemical Co., St. Louis, Mo.) at room temperature, individual Dumont stage V and VI oocytes were transferred to an incubator and maintained overnight in Barth's solution (NaCl 84 mM, NaHCO3 2.4 mM, MgSO4 0.82 mM, KCl 1 mM, Ca(NO3)2 0.33 mM, CaCl2 0.41 mM, Tris/HCl 7.5 mM, pyruvate 2.5 mM, gentamycin 50 μg/mL, penicillin-streptomycin, 100 units/mL, pH 7.4) at 18-20° C. and used for experiments 1-5 days post-injection. Oocytes were injected solution using an electronic microinjector (Drummond, Broomall, Pa.) with 50 nL of RNA containing 0.3-0.5 ng of each subunit RNA in a 1:1:1 ratio. The injected oocytes were used for experiments after 1-5 days of incubation in Barth's solution at 18-20° C.
Measurements of ion currents from oocytes expressing GABAA receptors were performed using a Warner two-electrode voltage-clamp amplifier (Warner Instruments, Inc., Foster City, Calif.) (Park-Chung, M., et al. (1999) Brain Res. 830: 72-87 incorporated herein in its entirety). Microelectrodes were fabricated from borosilicate glass capillaries with a programmed pipette puller (Sutter Instrument Co., Calif.). Microelectrode resistance was 1-3 MΩ when filled with 3 M KCl. The oocyte recording chamber was continuously perfused with Ringer solution. Oocytes were clamped at a holding potential of −70 mV during data acquisition. The membrane current was filtered at 10 Hz and sampled at 100 Hz. Compounds were applied by a gravity-driven external perfusion system. The working volume of the recording chamber was 30 μL and the rate of the perfusion was approximately 50 μL/sec. Compound application was 10-20 sec followed by a 90 sec wash. Data acquisition and external perfusion was computer controlled by custom-developed software. All experiments were performed at room temperature (22-24° C.). Dose-response data from each oocyte were fitted to the Hill equation by non-linear regression using the equation: IGABA=Emax/(1+(EC50/c)^n^H)
Emax is the maximum response, EC50 is the concentration producing 50% of the maximal response, nH is the Hill coefficient and c is the concentration of agonist. […]
For orientation: In two-electrode clamp one electrode senses voltage and the other passes current.

These results are taken from patent US9012470B2 (Dart NeuroScience (Cayman) Ltd., priority 2010, dated 2015).

In the case of `CCNC(=O)n1ncc2c3nn(-c4ccc(Cl)cn4)c(=O)c-3c[nH]c21` [Compound 6ay, 2-(5-chloropyridin-2-yl)-N-ethyl-3-oxo-2,3-dihydrodipyrazolo[3,4-b:3′,4′-d]pyridine-6(5H)-carboxamide], the “% Inhibition at 10 μM” value in assay [1] was “A (A indicates % inhibition >80%)”. In the assay with GABAA receptors, the “EP Modulation” value is on record as “D (D indicates negative modulation >20%)”.
